In ChEMBL document CHEMBL1201862, “PubChem BioAssay data set” (2004):
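Following 48 hours of exposure in 96-well plates, responses at five concentrations were used to interpolate endpoints linearly. GI50 = concentration required for 50% inhibition of growth.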 Activity calls are given as the source filed them. Rule as the data show it: active = GI50 up to about 1.1 µM and inactive = higher.

Experiments:
Assay in all cases: NCI tumour cell line growth inhibition, 48 h
[1] = system: 786-0
[2] = system: A498
[3] = system: A549
[4] = system: ACHN
[5] = system: BT-549
[6] = system: CAKI-1
[7] = system: CCRF-CEM
[8] = system: COLO 205
[9] = system: DU-145
[10] = system: EKVX
[11] = system: HCC 2998
[12] = system: HCT-116
[13] = system: HCT-15
[14] = system: HL-60
[15] = system: HOP-92
[16] = system: HT-29
[17] = system: Hs-578T
[18] = system: IGROV-1
[19] = system: K562
[20] = system: KM12
[21] = system: LOX IMVI
[22] = system: M14
[23] = system: MCF7
[24] = system: MDA-MB-231
[25] = system: MDA-MB-435
[26] = system: MDA-N
[27] = system: MOLT-4
[28] = system: Malme-3M
[29] = system: NCI-H226
[30] = system: NCI-H23
[31] = system: NCI-H460
[32] = system: NCI/ADR-RES
[33] = system: OVCAR-3
[34] = system: OVCAR-5
[35] = system: OVCAR-8
[36] = system: PC-3
[37] = system: RXF 393
[38] = system: SF-268
[39] = system: SF-295
[40] = system: SF-539
[41] = system: SK-MEL-28
[42] = system: SK-MEL-2
[43] = system: SK-MEL-5
[44] = system: SK-OV-3
[45] = system: SN12C
[46] = system: SNB-19
[47] = system: SNB-75
[48] = system: SW-620
[49] = system: T47D
[50] = system: TK-10
[51] = system: U-251
[52] = system: UACC-257
[53] = system: UACC-62
[54] = system: UO-31
[55] = system: HOP-62
[56] = system: NCI-H522
[57] = system: OVCAR-4
[58] = system: RPMI-8226

Structure (SMILES): CC1C2(C)OC(=N)C(C#N)(C(c3ccccc3)O2)C1(C#N)C#N (centres undefined)
- GI50 [1]: 21.2 µM (inactive)
- GI50 [2]: 42.1 µM (inactive)
- GI50 [3]: > 100 µM (inactive)
- GI50 [4]: 38.1 µM (inactive)
- GI50 [5]: 42.3 µM (inactive)
- GI50 [6]: 13.7 µM (inactive)
- GI50 [7]: 17.6 µM (inactive)
- GI50 [8]: 16.4 µM (inactive)
- GI50 [9]: 31.3 µM (inactive)
- GI50 [10]: 21.4 µM (inactive)
- GI50 [11]: 10.8 µM (inactive)
- GI50 [12]: 21.2 µM (inactive)
- GI50 [13]: 10.9 µM
- GI50 [14]: 16.6 µM (inactive)
- GI50 [15]: 12.6 µM (inactive)
- GI50 [16]: 18.1 µM (inactive)
- GI50 [17]: 24.6 µM (inactive)
- GI50 [18]: 33.8 µM (inactive)
- GI50 [19]: 25.1 µM (inactive)
- GI50 [20]: 51.5 µM (inactive)
- GI50 [21]: 17.2 µM (inactive)
- GI50 [22]: 13.9 µM (inactive)
- GI50 [23]: 21.2 µM (inactive)
- GI50 [24]: 16.9 µM (inactive)
- GI50 [25]: 33.3 µM (inactive)
- GI50 [26]: 18.2 µM (inactive)
- GI50 [27]: 25.4 µM (inactive)
- GI50 [28]: 28.3 µM (inactive)
- GI50 [29]: > 100 µM (inactive)
- GI50 [30]: 28.2 µM (inactive)
- GI50 [31]: 12.6 µM (inactive)
- GI50 [32]: 42.9 µM (inactive)
- GI50 [33]: 15.1 µM (inactive)
- GI50 [34]: 25.5 µM (inactive)
- GI50 [35]: 30.4 µM (inactive)
- GI50 [36]: 22.8 µM (inactive)
- GI50 [37]: 30.3 µM (inactive)
- GI50 [38]: 25.5 µM (inactive)
- GI50 [39]: 86.5 µM (inactive)
- GI50 [40]: 20.3 µM (inactive)
- GI50 [41]: > 10 µM (inactive)
- GI50 [42]: 16.9 µM (inactive)
- GI50 [43]: 16.7 µM (inactive)
- GI50 [44]: > 100 µM (inactive)
- GI50 [45]: 16.6 µM (inactive)
- GI50 [46]: 55.2 µM (inactive)
- GI50 [47]: > 100 µM (inactive)
- GI50 [48]: > 10 µM (inactive)
- GI50 [49]: 20 µM (inactive)
- GI50 [50]: 36 µM (inactive)
- GI50 [51]: 18.7 µM (inactive)
- GI50 [52]: 25.2 µM (inactive)
- GI50 [53]: 24.4 µM (inactive)
- GI50 [54]: 39.8 µM (inactive)

Structure (SMILES): O=[N+]([O-])c1ccc(/C=N\N=c2/ccc([N+](=O)[O-])c[nH]2)cc1
- GI50 [1]: > 100 µM (inactive)
- GI50 [3]: > 100 µM (inactive)
- GI50 [4]: > 100 µM (inactive)
- GI50 [5]: > 100 µM (inactive)
- GI50 [7]: > 100 µM (inactive)
- GI50 [8]: > 100 µM (inactive)
- GI50 [9]: > 100 µM (inactive)
- GI50 [10]: > 100 µM (inactive)
- GI50 [11]: > 100 µM (inactive)
- GI50 [12]: > 100 µM (inactive)
- GI50 [13]: > 100 µM
- GI50 [14]: > 100 µM (inactive)
- GI50 [55]: > 100 µM (inactive)
- GI50 [15]: > 100 µM (inactive)
- GI50 [16]: > 100 µM (inactive)
- GI50 [17]: > 100 µM (inactive)
- GI50 [18]: > 100 µM (inactive)
- GI50 [19]: > 100 µM (inactive)
- GI50 [20]: > 100 µM (inactive)
- GI50 [22]: > 100 µM (inactive)
- GI50 [23]: > 100 µM (inactive)
- GI50 [24]: 46 µM (inactive)
- GI50 [25]: > 100 µM (inactive)
- GI50 [26]: > 100 µM (inactive)
- GI50 [27]: > 100 µM (inactive)
- GI50 [28]: > 100 µM (inactive)
- GI50 [29]: > 100 µM (inactive)
- GI50 [30]: > 100 µM (inactive)
- GI50 [31]: > 100 µM (inactive)
- GI50 [56]: > 100 µM (inactive)
- GI50 [32]: > 100 µM (inactive)
- GI50 [33]: > 100 µM (inactive)
- GI50 [57]: > 100 µM (inactive)
- GI50 [34]: > 100 µM (inactive)
- GI50 [35]: > 100 µM (inactive)
- GI50 [36]: > 100 µM (inactive)
- GI50 [58]: > 100 µM (inactive)
- GI50 [37]: > 100 µM (inactive)
- GI50 [38]: > 100 µM (inactive)
- GI50 [39]: > 100 µM (inactive)
- GI50 [40]: 32.6 µM (inactive)
- GI50 [41]: > 100 µM (inactive)
- GI50 [42]: > 100 µM (inactive)
- GI50 [43]: > 100 µM (inactive)
- GI50 [44]: 86.9 µM (inactive)
- GI50 [45]: > 100 µM (inactive)
- GI50 [46]: > 100 µM (inactive)
- GI50 [47]: 90.6 µM (inactive)
- GI50 [48]: > 100 µM (inactive)
- GI50 [49]: > 100 µM (inactive)
- GI50 [50]: > 100 µM (inactive)
- GI50 [51]: 69 µM (inactive)
- GI50 [52]: > 100 µM (inactive)
- GI50 [53]: > 100 µM (inactive)
- GI50 [54]: > 100 µM (inactive)
